Test results: patent US9745335B2 (Blirt S.A., priority 2012, dated 2017)

Experiments:
[1] = system: Candida albicans ATCC 10231; assay: antifungal activity in vitro, serial dilution in RPMI 1640; assay type: cell-based
Method in brief: (§1)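 Broth serial dilution was run in buffered RPMI 1640, pH 7.0, per […] M27-A2. Growth was read as optical density at 531 nm (A531) and plotted against compound concentration.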

[2] = system: Candida glabrata DSM 11226; assay: as above; assay type: cell-based
Method in brief: as §1

[3] = system: Candida krusei DSM 6128; assay: as above; assay type: cell-based
Method in brief: as §1

[4] = system: Candida lusitaniae DSM 70102; assay: as above; assay type: cell-based
Method in brief: as §1

[5] = system: Candida tropicalis KKP 334; assay: as above; assay type: cell-based
Method in brief: as §1

[6] = system: Saccharomyces cerevisiae ATCC 9763; assay: as above; assay type: cell-based; conditions: RPMI 1640, pH 7.0; for Antifungal activity IC50: Saccharomyces cerevisiae ATCC 9763 (first head over MIC and IC50); for Antifungal activity MIC: Saccharomyces cerevisiae ATCC 9763
Method in brief: as §1

[7] = system: Human erythrocytes; assay: hemotoxicity determination (hemolytic activity); assay type: cell-based
Method in brief: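 Human erythrocytes (2×10^7/ml in saline) were incubated with serially diluted compound for 30 min at 37 °C and then centrifuged. Released haemoglobin was read at A540 against a 0.1% Triton X-100 full-lysis control. EH50 is the interpolated concentration giving 50% of the control A540.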

[8] = system: Aspergillus niger LOCK E201; assay: antifungal activity in vitro, broader spectrum; assay type: cell-based
Protocol: (§2) For the determination of antifungal activity in vitro we used method of serial dilution in buffered medium RPMI 1640, pH 7.0, in a 96-wells microplates, according to the standard procedure (National Committee for Clinical Laboratory Standards. Reference method for broth dilution antifungal susceptibility testing of yeast, approved standard, 2nd ed. M27-A2 vol. 22 Wayne, Pa., 2002). The optical density of cells suspension was measured using a microplates reader (Victor^3, Perkin-Elmer) at the wavelength λ=531 nm (A531). On the basis of obtained results the diagrams of relation between A531 values and concentration of examined compound were made.
(§3) Obtained results are presented below in tables 2A and 2B.

[9] = system: Candida albicans SC 5314; assay: antifungal activity in vitro, broader spectrum; assay type: cell-based
Protocol: as §2, §3

[10] = system: Candida arborea KKP 319; assay: antifungal activity in vitro, broader spectrum; assay type: cell-based
Protocol: as §2, §3

[11] = system: Candida dubliniensis CBS 7987; assay: antifungal activity in vitro, broader spectrum; assay type: cell-based
Protocol: as §2, §3

[12] = system: Candida lipolytica KKP 322; assay: antifungal activity in vitro, broader spectrum; assay type: cell-based
Protocol: as §2, §3

[13] = system: Candida parapsilosis DSM 5784; assay: antifungal activity in vitro, broader spectrum; assay type: cell-based
Protocol: as §2, §3

[14] = system: Candida pseudotropicalis KKP 324; assay: antifungal activity in vitro, broader spectrum; assay type: cell-based
Protocol: as §2, §3

[15] = system: Candida quilliermondii DSM 11947; assay: antifungal activity in vitro, broader spectrum; assay type: cell-based
Protocol: as §2, §3

[16] = system: Candida stellatoidea CBS 1905; assay: antifungal activity in vitro, broader spectrum; assay type: cell-based
Protocol: as §2, §3

[17] = system: Trichoderma viride LOCK E159; assay: antifungal activity in vitro, broader spectrum; assay type: cell-based
Protocol: as §2, §3

[18] = system: Candida albicans clinical strain B3; assay: antifungal activity against MDR fungal strains and parents; assay type: cell-based; conditions: C. albicans B3, fluconazole sensitive, parent strain for B4
Protocol: as §2

[19] = system: Candida albicans clinical strain B4 (CaMdr1p); assay: as above; assay type: cell-based; conditions: C. albicans B4 (CaMdr1p), fluconazole-resistant
Protocol: as §2

[20] = system: Candida albicans clinical strain F2; assay: as above; assay type: cell-based; conditions: C. albicans F2, fluconazole sensitive, parent strain for F5
Protocol: as §2

[21] = system: Candida albicans clinical strain F5 (CaMdr1p); assay: as above; assay type: cell-based; conditions: C. albicans F5 (CaMdr1p), fluconazole-resistant
Protocol: as §2

[22] = system: Candida albicans clinical strain Gu4; assay: as above; assay type: cell-based; conditions: C. albicans Gu4, fluconazole sensitive, parent strain for Gu5
Protocol: as §2

[23] = system: Candida albicans clinical strain Gu5 (CaCdr1p, CaCdr2p); assay: as above; assay type: cell-based; conditions: C. albicans Gu5 (CaCdr1p, CaCdr2p), fluconazole-resistant
Protocol: as §2

[24] = system: Candida albicans strain 5674 (CaCdr1p, CaCdr2p); assay: as above; assay type: cell-based; conditions: C. albicans 5674 (CaCdr1p, CaCdr2p)
Protocol: as §2

[25] = system: Candida albicans strain STY31; assay: as above; assay type: cell-based; conditions: C. albicans STY31, 5674 derivative, deletion of CDR1 and CDR2
Protocol: as §2

[26] = system: Candida albicans strain STY7 (CaCdr1p); assay: as above; assay type: cell-based; conditions: C. albicans STY7 (CaCdr1p), 5674 derivative, deletion of CDR2
Protocol: as §2

[27] = system: CCRF-CEM cells; assay: cytotoxic activity against mammalian cells in tissue culture (MTT); assay type: cell-based, human
[28] = system: HepG2 cells; assay: as above; assay type: cell-based, human
[29] = system: LLC-PK1 cells; assay: as above; assay type: cell-based, pig

Row | Molecule | Antifungal activity MIC [1] [µg/mL] | Antifungal activity MIC [2] [µg/mL] | Antifungal activity MIC [3] [µg/mL] | Antifungal activity MIC [4] [µg/mL] | Antifungal activity MIC [5] [µg/mL] | Antifungal activity IC50 [6] [µg/mL] | Antifungal activity MIC [6] [µg/mL] | Hemotoxi EH50 [7] [µg/mL] | Antifungal activity MIC [8] [µg/mL] | Antifungal activity MIC [9] [µg/mL] | Antifungal activity MIC [10] [µg/mL] | Antifungal activity MIC [11] [µg/mL] | Antifungal activity MIC [12] [µg/mL] | Antifungal activity MIC [13] [µg/mL] | Antifungal activity MIC [14] [µg/mL] | Antifungal activity MIC [15] [µg/mL] | Antifungal activity MIC [16] [µg/mL] | Antifungal activity MIC [17] [µg/mL] | Antifungal activity MIC [18] [µg/mL] | Antifungal activity MIC [19] [µg/mL] | also measured
1 | C[C@@H]1[C@H](O)[C@@H](C)/C=C/C=C/C=C/C=C/C=C/C=C/C=C/[C@H](O[C@@H]2O[C@H](C)[C@@H](O)[C@H](NC(=O)[C@H](N)c3ccccc3)[C@@H]2O)C[C@@H]2O[C@](O)(C[C@@H](O)C[C@@H](O)[C@H](O)CC[C@@H](O)C[C@@H](O)CC(=O)O[C@H]1C)C[C@H](O)[C@H]2C(=O)O [Compound A41, N-D-phenylglycylamphotericin B] | 2 | 4 | 4 | 2 | 4 | 1.46 | 4 | >100 | 2 | 1 | 4 | 1 | 2 | 2 | 2 | 1 | 2 | 4 | 1 | 1 | Antifungal activity MIC [20]: 2 µg/mL; Antifungal activity MIC [21]: 4 µg/mL; Antifungal activity MIC [22]: 1 µg/mL; Antifungal activity MIC [23]: 1 µg/mL; Antifungal activity MIC [24]: 1 µg/mL; Antifungal activity MIC [25]: 1 µg/mL; Antifungal activity MIC [26]: 1 µg/mL; IC50 (cytotoxic activity) [27]: >100 µg/mL; IC50 (cytotoxic activity) [28]: >100 µg/mL; IC50 (cytotoxic activity) [29]: >100 µg/mL
2 | C[C@@H]1[C@H](O)[C@@H](C)/C=C/C=C/C=C/C=C/C=C/C=C/C=C/[C@H](O[C@@H]2O[C@H](C)[C@@H](O)[C@H](NC(=S)NCCN3CCCCC3)[C@@H]2O)C[C@@H]2O[C@](O)(C[C@@H](O)C[C@@H](O)[C@H](O)CC[C@@H](O)C[C@@H](O)CC(=O)O[C@H]1C)C[C@H](O)[C@H]2C(=O)O [Compound A22, N-{[3-(2-piperidin-1-yl)ethyl]thioureidyl}amphotericin B] | 1 | 4 | 2 | 1 | 1 | 0.71 | 1 | >100 | 2 | 2 | 2 | 1 | 1 | 2 | 2 | 1 | 1 | 2 | 0.25 | 4 | Antifungal activity MIC [20]: 4 µg/mL; Antifungal activity MIC [21]: 8 µg/mL; Antifungal activity MIC [22]: 0.25 µg/mL; Antifungal activity MIC [23]: 2 µg/mL; Antifungal activity MIC [24]: 1 µg/mL; Antifungal activity MIC [25]: 2 µg/mL; Antifungal activity MIC [26]: 2 µg/mL; IC50 (cytotoxic activity) [27]: >100 µg/mL; IC50 (cytotoxic activity) [28]: >100 µg/mL; IC50 (cytotoxic activity) [29]: >100 µg/mL
3 | N-(L-N,N-diethylphenylalanyl)amphotericin B [Compound A42] | 4 | 8 | 8 | 4 | 4 | 2.75 | 4 | >100 | 1 | 4 | 4 | 2 | 4 | 4 | 4 | 4 | 4 | 2 | 2 | 8 | Antifungal activity MIC [20]: 1 µg/mL; Antifungal activity MIC [21]: 2 µg/mL; Antifungal activity MIC [22]: 2 µg/mL; Antifungal activity MIC [23]: 4 µg/mL; Antifungal activity MIC [24]: 4 µg/mL; Antifungal activity MIC [25]: 4 µg/mL; Antifungal activity MIC [26]: 4 µg/mL; IC50 (cytotoxic activity) [27]: >100 µg/mL; IC50 (cytotoxic activity) [28]: >100 µg/mL; IC50 (cytotoxic activity) [29]: >100 µg/mL
4 | N-methyl-L-(O^γ-tert-butyl)glutamylamphotericin B [Compound A34] | 4 | 4 | 4 | 2 | 4 | 1.22 | 2 | >100 | 2 | 1 | 4 | 1 | 1 | 1 | 1 | 2 | 1 | 4 | 1 | 2 | Antifungal activity MIC [20]: 4 µg/mL; Antifungal activity MIC [21]: 8 µg/mL; Antifungal activity MIC [22]: 1 µg/mL; Antifungal activity MIC [23]: 2 µg/mL; Antifungal activity MIC [24]: 4 µg/mL; Antifungal activity MIC [25]: 2 µg/mL; Antifungal activity MIC [26]: 2 µg/mL; IC50 (cytotoxic activity) [27]: >100 µg/mL; IC50 (cytotoxic activity) [28]: >100 µg/mL; IC50 (cytotoxic activity) [29]: >100 µg/mL
